# Laboratory results from US20240208968A1, “ALPHA V BETA 6 AND ALPHA V BETA 1 INTEGRIN INHIBITORS AND USES THEREOF” (DiCE Molecules SV, Inc., priority 2021, published 2024).
# Where a name gives a salt, the structure may show the parent alone.
# Legend:
# [1] = target: αvβ1 (Homo sapiens, UniProt P05556+P06756); assay: Solid Phase Integrin αvβ1 Assay; format: binding
# How it was run: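 Wells coated with 1 µg/mL recombinant TGFb1-LAP and blocked with 2% BSA/TBST, 1 mM MnCl2; αvβ1 (added at 0.2 µg/mL) and compound incubated 90 min at room temperature. Bound integrin detected by streptavidin-HRP (20 min) and TMB after Mn-containing washes; IC50 by four-parameter logistic fit.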
# [2] = target: αvβ6 (Homo sapiens, UniProt P06756+P18564); assay: Solid Phase Integrin αvβ6 Assay; format: binding
# Chain of αvβ6 (P06756 31-992 limits assumed): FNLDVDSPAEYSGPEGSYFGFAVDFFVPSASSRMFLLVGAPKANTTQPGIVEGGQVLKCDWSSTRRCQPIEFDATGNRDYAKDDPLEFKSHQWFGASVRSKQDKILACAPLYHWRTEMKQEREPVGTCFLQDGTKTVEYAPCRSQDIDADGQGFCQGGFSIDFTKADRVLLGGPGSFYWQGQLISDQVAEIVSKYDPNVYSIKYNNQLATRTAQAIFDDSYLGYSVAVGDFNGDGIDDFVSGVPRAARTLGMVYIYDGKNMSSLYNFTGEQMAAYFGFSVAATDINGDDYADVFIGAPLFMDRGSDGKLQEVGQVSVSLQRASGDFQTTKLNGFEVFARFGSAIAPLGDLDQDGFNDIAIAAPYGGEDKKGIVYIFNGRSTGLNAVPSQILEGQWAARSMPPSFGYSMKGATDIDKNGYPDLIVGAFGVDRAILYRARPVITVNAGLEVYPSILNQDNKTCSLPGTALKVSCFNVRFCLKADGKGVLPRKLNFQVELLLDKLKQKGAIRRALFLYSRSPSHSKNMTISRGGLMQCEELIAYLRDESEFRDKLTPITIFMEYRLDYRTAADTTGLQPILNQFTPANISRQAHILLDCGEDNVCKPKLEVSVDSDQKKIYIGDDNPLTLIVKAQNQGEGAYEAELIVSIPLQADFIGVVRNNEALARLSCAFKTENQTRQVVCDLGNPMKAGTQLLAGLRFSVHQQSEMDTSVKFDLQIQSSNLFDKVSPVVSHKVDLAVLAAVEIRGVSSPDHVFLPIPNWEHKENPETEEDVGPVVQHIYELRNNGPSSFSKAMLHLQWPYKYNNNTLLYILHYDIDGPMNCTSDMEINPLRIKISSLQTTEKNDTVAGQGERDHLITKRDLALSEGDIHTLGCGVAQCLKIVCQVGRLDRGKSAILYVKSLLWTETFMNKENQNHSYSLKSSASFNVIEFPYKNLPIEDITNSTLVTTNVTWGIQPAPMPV
# Chain of αvβ6 (P18564 22-707 limits assumed): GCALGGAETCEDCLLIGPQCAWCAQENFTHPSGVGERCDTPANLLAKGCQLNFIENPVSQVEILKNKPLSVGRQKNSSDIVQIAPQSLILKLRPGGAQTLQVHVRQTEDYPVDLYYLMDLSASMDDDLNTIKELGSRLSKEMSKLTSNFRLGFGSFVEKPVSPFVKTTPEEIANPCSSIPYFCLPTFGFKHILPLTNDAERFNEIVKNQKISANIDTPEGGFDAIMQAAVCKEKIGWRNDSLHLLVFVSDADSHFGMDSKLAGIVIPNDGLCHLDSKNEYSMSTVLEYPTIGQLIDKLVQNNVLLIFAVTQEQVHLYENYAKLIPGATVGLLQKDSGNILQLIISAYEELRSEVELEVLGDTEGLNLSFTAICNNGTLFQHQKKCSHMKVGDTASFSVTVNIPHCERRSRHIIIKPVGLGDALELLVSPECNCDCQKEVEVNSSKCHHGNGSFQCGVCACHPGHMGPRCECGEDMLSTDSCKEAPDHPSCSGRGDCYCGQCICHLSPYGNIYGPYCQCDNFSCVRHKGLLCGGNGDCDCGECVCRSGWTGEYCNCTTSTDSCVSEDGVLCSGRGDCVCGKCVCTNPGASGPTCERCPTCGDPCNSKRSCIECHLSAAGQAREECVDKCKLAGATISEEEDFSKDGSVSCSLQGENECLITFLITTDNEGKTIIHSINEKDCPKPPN
# How it was run: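 Plates coated with 1 μg/mL recombinant TGFb1-LAP; compounds and αvβ6 (0.2 μg/mL diluted stock) incubated 1 h at room temperature in 2% BSA/TBST with 1 mM MnCl2. Bound integrin detected with streptavidin-HRP and TMB; IC50 from four-parameter logistic fits.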
# Chain of αvβ1 (P06756 31-992 limits assumed): as the sequence (P06756 31-992 limits assumed) above
# Chain of αvβ1 (P05556 21-728 limits assumed): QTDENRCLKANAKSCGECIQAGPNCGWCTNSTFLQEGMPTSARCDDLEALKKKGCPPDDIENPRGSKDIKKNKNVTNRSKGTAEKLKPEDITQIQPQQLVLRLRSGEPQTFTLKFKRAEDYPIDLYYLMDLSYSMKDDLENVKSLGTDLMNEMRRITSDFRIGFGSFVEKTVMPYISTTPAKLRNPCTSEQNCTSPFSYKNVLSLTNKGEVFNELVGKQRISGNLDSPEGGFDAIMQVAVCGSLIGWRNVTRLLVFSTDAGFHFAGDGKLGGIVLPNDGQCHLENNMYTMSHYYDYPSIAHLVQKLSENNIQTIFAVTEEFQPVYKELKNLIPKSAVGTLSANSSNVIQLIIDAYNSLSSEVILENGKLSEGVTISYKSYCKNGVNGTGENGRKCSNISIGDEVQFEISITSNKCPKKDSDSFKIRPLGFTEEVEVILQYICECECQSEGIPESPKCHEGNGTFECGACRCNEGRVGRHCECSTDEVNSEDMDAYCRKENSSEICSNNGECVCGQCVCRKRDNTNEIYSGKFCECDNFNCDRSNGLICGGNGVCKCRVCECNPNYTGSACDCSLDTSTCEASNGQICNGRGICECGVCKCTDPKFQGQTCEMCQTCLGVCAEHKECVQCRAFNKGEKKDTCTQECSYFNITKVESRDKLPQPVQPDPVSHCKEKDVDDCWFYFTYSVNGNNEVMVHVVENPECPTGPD
Structure (SMILES),IC50 [1],IC50 [2]
"O=C(O)C[C@H](C(=O)N[C@@H]1CCCN(CCCc2ccc3c(n2)NCCC3)C1)c1ccccc1 [Compound 299, (S)-4-oxo-3-phenyl-4-(((R)-1-(3-(5,6,7,8-tetrahydro-1,8-naphthyridin-2-yl)propyl)piperidin-3-yl)amino)butanoic acid]",> 1000 nM,> 1000 nM
"O=C(O)C[C@H](NC(=O)[C@@H]1CCCN(CCCc2ccc3c(n2)NCCC3)C1)c1cccc2c1CCCO2 [Compound 216-A, 3-(chroman-5-yl)-3-((R)-1-(3-(5,6,7,8-tetrahydro-1,8-naphthyridin-2-yl)propyl)piperidine-3-carboxamido)propanoic acid]",100 to 1000 nM,< 100 nM
"O=C(NC[C@H](Nc1cccc2ccccc12)C(=O)O)[C@@H]1CCCN(CCCc2ccc3c(n2)NCCC3)C1 [Compound 261, (S)-2-(naphthalen-1-ylamino)-3-((R)-1-(3-(5,6,7,8-tetrahydro-1,8-naphthyridin-2-yl)propyl)piperdine-3-carboxamido)propanoic acid]",< 100 nM,< 100 nM
O=C(O)[C@H](CO[C@@H]1CCCN(Cc2ccc3c(n2)NCCC3)C1)NC(=O)C12CCC(CC1)CC2 [Compound 404],> 1000 nM,> 1000 nM
O=C(NC[C@H](C(=O)O)c1ccccc1-c1ccccc1)[C@@H]1CCCN(CCCc2ccc3c(n2)NCCC3)C1 [Compound 341],> 1000 nM,> 1000 nM
"O=C(NC[C@@H](C(=O)O)c1cccc(-c2ccccc2)c1)[C@@H]1CCCN(CCCc2ccc3c(n2)NCCC3)C1 [Compound 256-A, 2-([1,1′-biphenyl]-3-yl)-3-((R)-1-(3-(5,6,7,8-tetrahydro-1,8-naphthyridin-2-yl)propyl)piperidine-3-carboxamido)propanoic acid]",100 to 1000 nM,100 to 1000 nM
O=C(O)CC(NC(=O)[C@@H]1CCCN(CCCc2ccc3c(n2)NCCC3)C1)c1cccc(O)c1 (stereo partly shown) [Compound 377],< 100 nM,< 100 nM
"O=C(O)C[C@@H](NC(=O)[C@@H]1CCCN(CCCc2ccc3c(n2)NCCC3)C1)c1ccc2ccccc2c1 [Compound 206, (R)-3-(naphthalen-2-yl)-3-((R)-1-(3-(5,6,7,8-tetrahydro-1,8-naphthyridin-2-yl)propyl)piperidine-3-carboxamido)propanoic acid hydrochloride]",< 100 nM,< 100 nM
O=C(O)[C@@H](CCO[C@H]1CCCN(CCCc2ccc3c(n2)NCCC3)C1)NC(=O)C12CCC(CC1)CC2 [Compound 443],100 to 1000 nM,100 to 1000 nM
C[C@@H]1C[C@H](C(=O)N[C@@H](CC(=O)O)c2ccccc2)CN(CCCc2ccc3c(n2)NCCC3)C1 [Compound 379],< 100 nM,< 100 nM
O=C(O)[C@@H](CO[C@@H]1CCCN(CCCc2ccc3c(n2)NCCC3)C1)Nc1ncnc2ccccc12 [Compound 408],> 1000 nM,> 1000 nM
"O=C(NC[C@H](C(=O)O)c1cccc(-c2ccccc2)c1)[C@@H]1CCCN(CCCc2ccc3c(n2)NCCC3)C1 [Compound 256-B, 2-([1,1′-biphenyl]-3-yl)-3-((R)-1-(3-(5,6,7,8-tetrahydro-1,8-naphthyridin-2-yl)propyl)piperidine-3-carboxamido)propanoic acid]",< 100 nM,< 100 nM
O=C(O)C[C@H](O[C@@H]1CCCN(CCCc2ccc3c(n2)NCCC3)C1)c1ccccc1 [Compound 349],> 1000 nM,> 1000 nM
O=C(O)[C@@](O)(CO[C@@H]1CCCN(CCCCc2ccc3c(n2)NCCC3)C1)c1ccccc1 [Compound 454],> 1000 nM,> 1000 nM
O=C(N[C@@H](CNC(=O)[C@@H]1CCCN(CCCc2ccc3c(n2)NCCC3)C1)C(=O)O)c1ccc(Cl)c(Cl)c1 [Compound 368],< 100 nM,< 100 nM
O=C(CC[C@@H](C(=O)O)c1ccccc1)N[C@@H]1CCN(CCCCc2ccc3c(n2)NCCC3)C1 [Compound 421],> 1000 nM,> 1000 nM
O=C(O)[C@@H](CCO[C@@H]1CCCN(CCCc2ccc3c(n2)NCCC3)C1)c1cccc(-c2ccccc2)c1 [Compound 330],> 1000 nM,< 100 nM
O=C(O)[C@@](O)(CO[C@@H]1CCCN(CCCc2ccc3c(n2)NCCC3)C1)c1ccccc1 [Compound 453],> 1000 nM,> 1000 nM
"O=C(NC[C@@H](C(=O)O)c1ccccc1)[C@@H]1CCCN(CCCc2ccc3c(n2)NCCC3)C1 [Compound 246, (S)-2-phenyl-3-((R)-1-(3-(5,6,7,8-tetrahydro-1,8-naphthyridin-2-yl)propyl)piperidine-3-carboxamido)propanoic acid]",< 100 nM,< 100 nM
"CNC(=O)c1cccc(CNC(=O)[C@@H]2CCCC[C@H]2C(=O)N[C@@H](CNC(=O)[C@@H]2CCCN(CCCc3ccc4c(n3)NCCC4)C2)C(=O)O)c1 [Compound 266, (S)-2-((1R,2R)-2-((3-(methylcarbamoyl)benzyl)carbamoyl)cyclohexane-1-carboxamido)-3-((R)-1-(3-(5,6,7,8-tetrahydro-1,8-naphthyridin-2-yl)propyl)piperidine-3-carboxamido)propanoic acid]",< 100 nM,< 100 nM
O=C(N[C@@H](CNC(=O)[C@@H]1CCCN(CCCc2ccc3c(n2)NCCC3)C1)C(=O)O)c1nnc(C2CC2)o1 [Compound 313],< 100 nM,< 100 nM
O=C(O)C[C@@H](NC(=O)[C@@H]1CCCN(CCCc2ccc3c(n2)NCCC3)C1)c1ccccc1C1CC1 [Compound 345],> 1000 nM,> 1000 nM
O=C(CC[C@H](NC(=O)C12CCC(CC1)CC2)C(=O)O)N[C@H]1CCN(C(=O)CCCc2ccc3c(n2)NCCC3)C1 [Compound 432],< 100 nM,< 100 nM
"O=C(O)C[C@@H](NC(=O)[C@@H]1CCCN(CCCc2ccc3c(n2)NCCC3)C1)c1cc(C2CC2)ccc1F [Compound 245-B, 3-(5-cyclopropyl-2-fluorophenyl)-3-((R)-1-(3-(5,6,7,8-tetrahydro-1,8-naphthyridin-2-yl)propyl)piperidine-3-carboxamido)propanoic acid]",< 100 nM,< 100 nM
O=C(O)[C@H](CCO[C@@H]1CCCN(Cc2ccc3c(n2)NCCC3)C1)Nc1ncnc2ccccc12 [Compound 387],< 100 nM,100 to 1000 nM
O=C(O)[C@@H](CCO[C@@H]1CCCN(CCCc2ccc3c(n2)NCCC3)C1)Nc1ncnc2ccccc12 [Compound 332],> 1000 nM,100 to 1000 nM
"O=C(O)C[C@H](NC(=O)[C@@H]1CCCN(CCCc2ccc3c(n2)NCCC3)C1)c1ccc2c(c1)CCC2 [Compound 201-A, 3-(2,3-dihydro-1H-inden-5-yl)-3-((R)-1-(3-(5,6,7,8-tetrahydro-1,8-naphthyridin-2-yl)propyl)piperidine-3-carboxamido)propanoic acid hydrochloride]",100 to 1000 nM,< 100 nM
"O=C(O)C[C@H](NC(=O)[C@@H]1CCCN(CCCc2ccc3c(n2)NCCC3)C1)c1ccc2c(c1)CCCC2 [Compound 204-A, 3-((R)-1-(3-(5,6,7,8-tetrahydro-1,8-naphthyridin-2-yl)propyl)piperidine-3-carboxamido)-3-(5,6,7,8-tetrahydronaphthalen-2-yl)propanoic acid]",< 100 nM,< 100 nM
"O=C(NC[C@H](C(=O)O)c1cccc2ccccc12)[C@@H]1CCCN(CCCc2ccc3c(n2)NCCC3)C1 [Compound 250-B, 2-(naphthalen-1-yl)-3-((R)-1-(3-(5,6,7,8-tetrahydro-1,8-naphthyridin-2-yl)propyl)piperidine-3-carboxamido)propanoic acid]",100 to 1000 nM,> 1000 nM

# Now from value to compound:
IC50 [1],IC50 [2],Structure (SMILES)
100 to 1000 nM,100 to 1000 nM,O=C(O)C[C@H](CO[C@@H]1CCCN(CCCc2ccc3c(n2)NCCC3)C1)c1cccc(N2C[C@H]3CC[C@@H]2CO3)c1 [Compound 463]
100 to 1000 nM,100 to 1000 nM,O=C(O)[C@H](CCO[C@@H]1CCCN(CCCc2ccc3c(n2)NCCC3)C1)Nc1ncnc2ccsc12 [Compound 470]
< 100 nM,< 100 nM,O=C(O)C[C@@H](CO[C@@H]1CCCN(CCCc2ccc3c(n2)NCCC3)C1)c1cncc(N2CCC(F)(F)CC2)c1 [Compound 649]
< 100 nM,< 100 nM,O=C(O)C[C@H](NC(=O)[C@@H]1CCCN(CCCc2ccc3c(n2)NCCC3)C1)c1cccc2c1OCO2 [Compound 614]
100 to 1000 nM,100 to 1000 nM,O=C(O)C[C@H](NC(=O)[C@@H]1CCCN(CCCc2ccc3c(n2)NCCC3)C1)c1ccccc1C1CC1 [Compound 556]
< 100 nM,< 100 nM,C[C@@H]1OCCN(c2cccc([C@H](CC(=O)O)NC(=O)[C@@H]3CCCN(CCCc4ccc5c(n4)NCCC5)C3)c2)[C@@H]1C [Compound 583]
> 1000 nM,> 1000 nM,O=C(O)[C@@H](CCO[C@@H]1CCCN(CCCc2ccc3c(n2)NCCC3)C1)c1ccc(F)c(-c2ccccc2)c1 [Compound 485]
< 100 nM,< 100 nM,O=C(O)C[C@H](NC(=O)[C@@H]1CCCN(CCCc2ccc3c(n2)NCCC3)C1)c1cccc(OC2COC2)c1 [Compound 535]
< 100 nM,< 100 nM,O=C(O)C[C@H](CO[C@@H]1CCCN(CCCc2ccc3c(n2)NCCC3)C1)c1cccc(N2CCCC2=O)c1 [Compound 482]
< 100 nM,< 100 nM,O=C(O)C[C@@H](CO[C@@H]1CCCN(CCCc2ccc3c(n2)NCCC3)C1)c1cncc(C2CC2)c1 [Compound 513]
< 100 nM,< 100 nM,O=C(O)C[C@H](NC(=O)[C@@H]1CCCN(CCCc2ccc3c(n2)NCCC3)C1)c1cccc(-n2cccc2)c1 [Compound 536]
< 100 nM,< 100 nM,C[C@H]1C[C@@H](C(=O)NC[C@H](C(=O)O)c2cccc(-c3ccccc3)c2)CN(CCCc2ccc3c(n2)NCCC3)C1 [Compound 631]
